Laboratory results taken from US20040050294A1, “Coloring material and color filter” (Dai Nippon Printing Co., Ltd., priority 1999, published 2004).

Assay: Solubility in solvents
Type: physicochemical
Settings: for solubility in solvents: PGMEA (methoxypropyl acetate): solvent PGMEA; for solubility in solvents: THF: solvent THF; for solubility in solvents: chloroform: solvent chloroform; for solubility in solvents: cyclohexanone: solvent cyclohexanone; for solubility in solvents: ethyl acetate: solvent ethyl acetate; for solubility in solvents: methanol: solvent methanol

solubility in solvents: PGMEA (methoxypropyl acetate) | solubility in solvents: THF | solubility in solvents: chloroform | solubility in solvents: cyclohexanone | solubility in solvents: ethyl acetate | solubility in solvents: methanol | SMILES
2 % by weight | 28.57 % by weight | 50 % by weight | 10 % by weight | 4.55 % by weight | 0.2 % by weight | CCC(C)(C)OC(=O)N/C(=C1/C(=O)N(C(=O)OC(C)(C)CC)C(c2ccc(Cl)cc2)=C1C(=O)OC)c1ccc(Cl)cc1 [compound 1]
0.67 % by weight | 12.5 % by weight | 2 % by weight | 5 % by weight | 1 % by weight | 0.1 % by weight | CCC(C)(C)OC(=O)N/C(=C1/C(=O)NC(c2ccc(Cl)cc2)=C1C(=O)OC)c1ccc(Cl)cc1 [compound 2]
5 % by weight |  | 10 % by weight | 10 % by weight | not more than 1 % by weight |  | CCC(C)(C)OC(=O)N1C(=O)C2=C(c3ccc(Cl)cc3)N(C(=O)OC(C)(C)CC)C(=O)C2=C1c1ccc(Cl)cc1 [DPP, N,N′-bis-tert-amyloxycarbonyl-1,4-diketo-3,6-di(4′-chlorophenyl)pyrrolo-[3,4-c]pyrrole, reference compound]
